Measured values: ChEMBL document CHEMBL1201862, “PubChem BioAssay data set” (2004)
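A five-concentration, 48-hour dose response in 96-well plates underlies each endpoint, interpolated linearly between surrounding concentrations. The concentration for 50% growth inhibition is given as GI50.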 Calls of active or inactive are those of the source. Cut-off read from the data, not from the text of the source: active = GI50 up to about 1.1 µM and inactive = higher.

What was measured:
Experiment in all cases: growth of human tumour cells (NCI), 48 h
A549 = system: A549
COLO 205 = system: COLO 205
HCC 2998 = system: HCC 2998
HL-60 = system: HL-60
HOP-62 = system: HOP-62
HT-29 = system: HT-29
K562 = system: K562
MDA-MB-435 = system: MDA-MB-435
Malme-3M = system: Malme-3M
NCI/ADR-RES = system: NCI/ADR-RES
OVCAR-3 = system: OVCAR-3
SF-268 = system: SF-268
SW-620 = system: SW-620
TK-10 = system: TK-10
KM12 = system: KM12
NCI-H23 = system: NCI-H23
RXF 393 = system: RXF 393
SF-539 = system: SF-539
SK-OV-3 = system: SK-OV-3
SN12C = system: SN12C

Measured: GI50

CC(=O)NC(CCCCNC(=O)OC(C)(C)C)C(=O)O (configuration not stated)
inactive: A549 > 100 µM | COLO 205 > 100 µM | HCC 2998 > 100 µM | HL-60 > 100 µM | HOP-62 > 100 µM | HT-29 > 100 µM | K562 > 100 µM | MDA-MB-435 > 100 µM | Malme-3M > 100 µM | NCI/ADR-RES > 100 µM | OVCAR-3 > 100 µM | SF-268 > 100 µM | SW-620 > 100 µM | TK-10 > 100 µM

Oc1nc2c(c(-c3ccccc3Cl)n1)COC/C2=C\c1ccccc1Cl
inactive: COLO 205 > 100 µM | HCC 2998 > 100 µM | HL-60 71.4 µM | HOP-62 > 100 µM | HT-29 > 100 µM | KM12 > 100 µM | MDA-MB-435 > 100 µM | NCI-H23 > 100 µM | NCI/ADR-RES > 100 µM | OVCAR-3 > 100 µM | RXF 393 > 100 µM | SF-268 > 100 µM | SF-539 > 100 µM | SK-OV-3 > 100 µM | SN12C > 100 µM | SW-620 > 100 µM | TK-10 > 100 µM

CSCCC(NOC(=O)Cc1ccccc1)P(=O)(O)c1ccccc1 (configuration not stated)
inactive: A549 > 100 µM | COLO 205 > 100 µM | HCC 2998 > 100 µM | HL-60 > 100 µM | HOP-62 > 100 µM | HT-29 > 100 µM | K562 > 100 µM | MDA-MB-435 > 100 µM | NCI-H23 > 100 µM | NCI/ADR-RES > 100 µM | OVCAR-3 > 100 µM | SK-OV-3 > 100 µM | SN12C > 100 µM | SW-620 > 100 µM | TK-10 > 100 µM

Cc1cn(C2CC(O)C(Cn3cc(Cn4nc(Br)c(=O)[nH]c4=O)nn3)O2)c(=O)[nH]c1=O (configuration not stated)
inactive: A549 > 100 µM | COLO 205 > 100 µM | HCC 2998 > 100 µM | HOP-62 > 100 µM | KM12 > 100 µM | MDA-MB-435 > 100 µM | Malme-3M 78 µM | NCI-H23 > 100 µM | NCI/ADR-RES > 100 µM | OVCAR-3 > 100 µM | RXF 393 > 100 µM | SF-268 > 100 µM | SF-539 > 100 µM | SK-OV-3 > 100 µM | SN12C > 100 µM | SW-620 > 100 µM | TK-10 > 100 µM

O=C(O)c1cccc(OCCO)c1
inactive: A549 > 100 µM | COLO 205 > 100 µM | HL-60 > 100 µM | HOP-62 > 100 µM | HT-29 > 100 µM | K562 > 100 µM | KM12 > 100 µM | MDA-MB-435 > 100 µM | Malme-3M > 100 µM | NCI-H23 > 100 µM | NCI/ADR-RES > 100 µM | OVCAR-3 > 100 µM | RXF 393 > 100 µM | SF-268 > 100 µM | SF-539 > 100 µM | SK-OV-3 > 100 µM | SN12C > 100 µM | SW-620 > 100 µM | TK-10 > 100 µM
